Read-outs that look alike come from different tables or passages of the source.
Molecular target: T1, human α7 nAChR stably expressed in a HEK cell line (with human RIC-3) (Homo sapiens, UniProt P36544)
T1 construct: PrecisION hnAChR α7/RIC-3
Experiment: Automated patch-clamp electrophysiology functional assay (Assay A), IonFlux HT, whole-cell population patch
Format: cell-based
Experimental: The α7 nAChR positive allosteric modulator (PAM) activity of the present compounds may be tested using assays known in the art. The α7 nAChR PAMs described herein have activities in an automated patch-clamp electrophysiology functional assay as described in the examples. The assay was performed using the IonFlux HT in a whole-cell, population patch configuration. See Golden et al. Assay Drug Dev. Technol. (2011) 9:608-619. The compounds were assessed for their ability to modulate the function of the human α7 nAChR stably expressed in a HEK cell line both in the presence, and in the absence of the natural α7 agonist acetylcholine. By performing a series of such measurements at different concentrations, the effective concentration of the α7 nAChR PAMs (EC50) was determined. See Spencer et al. Assay Drug Dev. Technol. (2012) 10:313-324.
Direct activation of α7 (agonism), and potentiation of 5 acetylcholine-evoked α7 currents was determined as follows:
Automated Patch-Clamp Electrophysiology Functional Assay (Assay A)
Automated patch-clamp electrophysiology was performed using the IonFlux HT (Fluxion Biosciences Inc., San Francisco, Calif.) in the whole-cell, population patch configuration. Test compounds were assessed for their ability to modulate the function of the α7 nicotinic acetylcholine receptor both in the presence, and in the absence of the natural α7 agonist acetylcholine. A HEK cell line stably expressing both human RIC-3 and human α7 (PrecisION hnAChR α7/RIC-3, Eurofins Pharma, St. Charles, Mo.) was cultured in 175 cm^2 triple-layer tissue culture flasks to no more than 90% confluency in DMEM/F-12 growth media supplemented with 10% heat-inactivated fetal bovine serum, 1% non-essential amino acids, 0.625 μg/mL Puromycin, and 400 μg/mL Geneticin. Immediately prior to assay, cells were detached by first aspirating growth media, rinsing with Dulbecco's phosphate buffered saline, and then adding 10 mL of Accutase (Innovative Cell Technologies, San Diego, Calif.) to the flask and then incubating at 37° C. for 5 minutes. Detached cells were then recovered by the addition of 40 mL of CHO-serum-free media supplemented with 25 mM HEPES, and rocked gently in a 50 mL conical tube for 20 minutes prior to patch-clamp assay. After recovery, cells were pelleted by centrifugation at 1,000 RPM for 1 minute in a compact bench top centrifuge; recovery media was aspirated and cells were resuspended in external recording solution (150 mM NaCl, 5 mM KCl, 2 mM CaCl2, 1 mM MgCl2, 10 mM HEPES, 12 mM dextrose) to a density of 5.0×10^6 cells/mL. The cell suspension was added to the cell inlet wells on an IonFlux HT population patch plate which had previously been rinsed and primed with deionized H2O. Test compounds were serially diluted in DMSO and then resuspended to the final test concentration in external recording solution, with, or without […] acetylcholine added to the external recording solution; test compounds were then transferred to the IonFlux HT population patch plate. Internal recording solution (110 mM TrisPO4, 28 mM TrisBase, 0.1 mM CaCl2, 2 mM MgCl2, 11 mM EGTA, 4 mM MgATP) was added to the internal recording solution inlet wells on the IonFlux HT patch plate previously loaded with cells and test compounds, and the plate loaded into the IonFlux HT instrument. A protocol was executed on the IonFlux HT to trap the cells, break into the cells, and establish the whole-cell recording configuration; cells were voltage-clamped at a holding potential of −60 mV for the duration of the experiment, all experiments were conducted at room temperature, and the IonFlux HT injection pressure was 8 psi for solution applications. Upon establishing the whole-cell configuration, external recording solution was perfused into the recording chambers for 120 seconds and then 40 μM acetylcholine was applied for 1 second and immediately washed off with external recording solution for 60 seconds. […]

[1] = automated patch-clamp electrophysiology functional assay (Assay A), potency class by EC50, read-out: α7 nAChR Potency
[2] = electrophysiology EC50, HEK cells expressing human α7/RIC-3, 40 μM acetylcholine, holding potential −60 mV, room temperature, read-out: α7 nAChR EC50

T1 sequence (P36544 23-502): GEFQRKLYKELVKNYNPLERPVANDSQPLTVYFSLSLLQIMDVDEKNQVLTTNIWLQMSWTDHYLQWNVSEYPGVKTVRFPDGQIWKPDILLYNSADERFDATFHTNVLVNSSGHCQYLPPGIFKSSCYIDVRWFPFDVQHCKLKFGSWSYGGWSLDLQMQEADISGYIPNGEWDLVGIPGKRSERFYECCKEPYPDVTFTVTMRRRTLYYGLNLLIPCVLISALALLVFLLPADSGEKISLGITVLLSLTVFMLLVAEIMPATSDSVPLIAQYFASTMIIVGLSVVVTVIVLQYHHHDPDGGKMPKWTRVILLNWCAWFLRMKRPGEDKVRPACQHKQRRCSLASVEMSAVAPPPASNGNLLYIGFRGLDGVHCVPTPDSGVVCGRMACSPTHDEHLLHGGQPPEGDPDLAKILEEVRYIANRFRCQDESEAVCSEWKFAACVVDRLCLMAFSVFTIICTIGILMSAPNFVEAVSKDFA

Row | Structure (SMILES) | EC50 [1] [nM] | EC50 [2] [nM]
1 | NS(=O)(=O)c1ccc([C@H]2C[C@@H]2c2nc(-c3ccc(F)cc3F)no2)cc1 [Example A8] | 5000 to 50000 | –
2 | NS(=O)(=O)c1ccc([C@@H]2[C@@H](c3nc(-c4cccc(F)c4)no3)C2(Cl)Cl)cc1 (relative stereo) [Example 36, 4-{trans-2,2-Dichloro-3-[3-(3-fluorophenyl)-1,2,4-oxadiazol-5-yl]cyclopropyl}benzenesulfonamide] | 100 to 500 | 470
3 | NS(=O)(=O)c1ccc([C@@H]2C[C@H]2c2nc(-c3cccc(F)c3)no2)cc1 [Example 4, 4-((1R,2R)-2-(3-(3-Fluorophenyl)-1,2,4-oxadiazol-5-yl)cyclopropyl)benzenesulfonamide] | 100 to 500 | 230
4 | NS(=O)(=O)c1ccc([C@@H]2C[C@H]2c2cn(-c3cccc(F)c3)nn2)cc1 [Example 26, 4-{(1R,2R)-2-[1-(3-Fluorophenyl)-1H-1,2,3-triazol-4-yl]cyclopropyl}benzenesulfonamide] | 500 to 5000 | 1600
5 | CC(C)c1nsc(C2CC2c2ccc(S(N)(=O)=O)cc2)n1 (single isomer, unassigned; enantiomer b) [Example 18, 4-{trans-2-[3-(Propan-2-yl)-1,2,4-thiadiazol-5-yl]cyclopropyl}benzenesulfonamide, enantiomer B] | 100 to 500 | 380
6 | CC1(C)[C@H](c2ccc(S(N)(=O)=O)cc2)[C@H]1c1nc(-c2cncc(F)c2)no1 [Example B2] | 500 to 5000 | –
7 | CC1(C)[C@H](c2ccc(S(N)(=O)=O)cc2)[C@H]1c1nc(-c2ccccc2C(F)(F)F)no1 [Example A13] | 500 to 5000 | –
8 | CC1(C)[C@H](c2ccc(S(N)(=O)=O)cc2)[C@H]1c1nc(-c2cccc(Br)c2)no1 [Example A14] | 500 to 5000 | –
9 | NS(=O)(=O)c1ccc([C@@H]2C[C@H]2c2nc(-c3ccccc3)co2)cc1 [Example 9, 4-[(1R,2R)-2-(4-Phenyl-1,3-oxazol-2-yl)cyclopropyl]benzenesulfonamide] | 100 to 500 | 430
10 | CC1C(c2ccc(S(N)(=O)=O)cc2)C1c1nc(-c2ccccc2)no1 (single isomer, unassigned; diastereomer 4) [Example 22, 4-(2-Methyl-3-(3-phenyl-1,2,4-oxadiazol-5-yl)cyclopropyl)benzenesulfonamide, diastereomer 4] | 100 to 500 | 120
11 | Cc1sc([C@@H]2C[C@H]2c2ccc(S(N)(=O)=O)cc2)nc1-c1ccccc1 [Example 15, 4-[(1R,2R)-2-(5-Methyl-4-phenyl-1,3-thiazol-2-yl)cyclopropyl]benzenesulfonamide] | ≤ 100 | 71
12 | CC1(C)[C@H](c2ccc(S(N)(=O)=O)cc2)[C@H]1c1nc(C2CCc3cc(F)ccc32)no1 (some centres unmarked) [Example B14] | 500 to 5000 | 1200
13 | CC1(C)[C@H](c2ccc(S(N)(=O)=O)cc2)[C@H]1c1nc(CC2CC2)no1 [Example B10] | 500 to 5000 | 3000
14 | CC1(C)C(c2ccc(S(N)(=O)=O)c(F)c2)C1c1nc(-c2ccccc2)no1 (single isomer, unassigned; enantiomer a) [Example 32, 4-[trans-2,2-Dimethyl-3-(3-phenyl-1,2,4-oxadiazol-5-yl)cyclopropyl]-2-fluorobenzenesulfonamide, enantiomer A] | 500 to 5000 | 860
15 | NS(=O)(=O)c1ccc([C@@H]2C[C@H]2c2nc(-c3ccccc3C(F)(F)F)no2)cc1 [Example C6] | 500 to 5000 | –
16 | CC1(C)[C@@H](c2ccc(S(C)(=O)=O)cc2)[C@@H]1c1nc(-c2ccccc2)no1 (relative stereo) [Example 33] | 500 to 5000 | 1100

More lines, now with the values ahead:

Row | EC50 [1] [nM] | EC50 [2] [nM] | Structure (SMILES)
17 | 500 to 5000 | – | CC1(C)[C@H](c2ccc(S(N)(=O)=O)cc2)[C@H]1c1nc(-c2cc(F)ccc2F)co1 [Example J3]
18 | 500 to 5000 | – | CC1(C)[C@H](c2ccc(S(N)(=O)=O)cc2)[C@H]1c1nnc(-c2cccnc2C2CC2)o1 [Example F6]
19 | 500 to 5000 | – | Cc1ncoc1-c1noc([C@@H]2C[C@H]2c2ccc(S(N)(=O)=O)cc2)n1 [Example D31]
20 | 500 to 5000 | 630 | CC1(C)[C@@H](c2ccc(S(N)(=O)=O)cc2)[C@@H]1c1nnc(C2CCCC2)o1 [Example G10]
21 | 100 to 500 | 210 | CC1(C)[C@@H](c2ccc(S(N)(=O)=O)cc2)[C@@H]1c1nc(C2(C(F)(F)F)CC2)no1 [Example D33]
22 | 500 to 5000 | – | CC1(C)[C@@H](c2ccc(S(N)(=O)=O)cc2)[C@@H]1c1ncc(C2CCCC2)s1 [Example K16]
23 | 500 to 5000 | – | CC1(C)[C@H](c2ccc(S(N)(=O)=O)cc2)[C@H]1c1noc(C2CCCCC2)n1 [Example L16]
24 | 500 to 5000 | 1800 | CC1(C)[C@@H](c2ccc(S(N)(=O)=O)cc2)[C@@H]1c1noc(C2CCN(C3CC3)CC2)n1 [Example I9]
25 | 100 to 500 | 190 | NS(=O)(=O)c1ccc([C@@H]2C[C@H]2c2noc(-c3cccc(F)c3)n2)cc1 [Example H15]
26 | 100 to 500 | 260 | CC1(C)[C@@H](c2ccc(S(N)(=O)=O)cc2)[C@@H]1c1noc(-c2ccccc2)n1 [Example H1]
27 | 5000 to 50000 | – | CC(c1nc([C@H]2[C@H](c3ccc(S(N)(=O)=O)cc3)C2(C)C)no1)n1ccnc1 (some centres unmarked) [Example I11]
28 | 500 to 5000 | – | CC1(C)[C@@H](c2ccc(S(N)(=O)=O)cc2)[C@@H]1c1noc(C2(c3cnccn3)CC2)n1 [Example I12]
29 | 500 to 5000 | 3800 | CC1(C)[C@@H](c2ccc(S(N)(=O)=O)cc2)[C@@H]1c1noc(C2CC(O)C2)n1 (some centres unmarked) [Example I30]
30 | 100 to 500 | 170 | CC1(C)[C@@H](c2ccc(S(N)(=O)=O)cc2)[C@@H]1c1noc(C2(c3cc(F)ccc3F)CCC2)n1 [Example I4]
31 | 500 to 5000 | – | CC1(C)[C@H](c2ccc(S(N)(=O)=O)cc2)[C@H]1c1nnc(-c2c(F)cccc2F)o1 [Example F1]
32 | 500 to 5000 | 2400 | CC1(C)[C@@H](c2ccc(S(N)(=O)=O)cc2)[C@@H]1c1noc(-c2cc(N3CCOC3=O)ccc2F)n1 [Example H7]
33 | 5000 to 50000 | 5400 | CC1(C)[C@@H](c2ccc(S(N)(=O)=O)cc2)[C@@H]1c1noc(-c2cc3sccc3[nH]2)n1 [Example I22]
34 | 100 to 500 | 240 | CC1(C)[C@@H](c2ccc(S(N)(=O)=O)cc2)[C@@H]1c1noc(-c2cc(F)cc(F)c2F)n1 [Example H10]
35 | 500 to 5000 | – | Cc1ncccc1-c1noc([C@H]2[C@H](c3ccc(S(N)(=O)=O)cc3)C2(C)C)n1 [Example D15]
36 | 500 to 5000 | – | CC1(C)[C@@H](c2ccc(S(N)(=O)=O)cc2)[C@@H]1c1noc(-c2cccnc2C(F)(F)F)n1 [Example I21]
37 | 100 to 500 | 390 | NS(=O)(=O)c1ccc([C@H]2[C@H](c3ncc(C4CCCC4)o3)C2(F)F)cc1 [Example K13]
38 | 500 to 5000 | 740 | CC1(C)[C@@H](c2ccc(S(N)(=O)=O)cc2)[C@@H]1c1nnc(-c2cccc(F)c2)o1 [Example G3]
39 | 500 to 5000 | – | CC1(C)[C@@H](c2ccc(S(N)(=O)=O)cc2)[C@@H]1c1nc(-c2ccc(C(F)(F)F)nc2)no1 [Example D29]
40 | 500 to 5000 | – | CCc1coc([C@@H]2C[C@H]2c2ccc(S(N)(=O)=O)cc2)n1 [Example K6]
41 | 500 to 5000 | – | CC1(C)[C@@H](c2ccc(S(N)(=O)=O)cc2)[C@@H]1c1nc(CC(F)(F)F)no1 [Example D14]
42 | 500 to 5000 | – | CC1(C)[C@H](c2ccc(S(N)(=O)=O)cc2)[C@H]1c1nc(C2CCCC2)co1 [Example J8]

— patent US9840481B2, “Allosteric modulators of nicotinic acetylcholine receptors” (MERCK SHARP & DOHME CORP., priority 2016, dated 2017)
